Key:
[1] = target: T1, hM1 (human Muscarinic receptor subtype 1) (Homo sapiens, UniProt P11229); test: Human M1 calcium mobilization FLIPR assay; type: cell-based; details: hM1 expressed in CHO cells, intracellular Ca2+ release, read-out: hM1 EC50
T1 construct: expressed in transfected cells; host or cells: CHO cells (Chinese hamster ovary cells, ATCC)
T1 sequence (P11229 1-460): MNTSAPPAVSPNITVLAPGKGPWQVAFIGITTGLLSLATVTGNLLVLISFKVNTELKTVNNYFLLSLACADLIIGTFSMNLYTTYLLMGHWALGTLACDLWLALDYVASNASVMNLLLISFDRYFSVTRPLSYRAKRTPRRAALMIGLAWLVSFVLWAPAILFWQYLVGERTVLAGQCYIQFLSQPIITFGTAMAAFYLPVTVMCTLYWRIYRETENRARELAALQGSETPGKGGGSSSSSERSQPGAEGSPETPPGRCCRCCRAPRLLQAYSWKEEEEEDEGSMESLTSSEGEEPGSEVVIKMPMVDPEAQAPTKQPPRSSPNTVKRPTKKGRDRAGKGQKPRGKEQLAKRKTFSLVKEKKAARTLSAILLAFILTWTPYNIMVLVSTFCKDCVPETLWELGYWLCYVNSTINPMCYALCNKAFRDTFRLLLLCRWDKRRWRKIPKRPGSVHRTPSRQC
Experimental: Human M1, rat M1, human M3 and human M5 Calcium Mobilization FLIPR™ Assay
The compound activity in the present invention (EC50 or IC50) is measured using a 384 plate-based imaging assay that monitors drug induced intracellular Ca^2+ release in whole cells. Activation of hM1 (human Muscarinic receptor subtype 1, gene bank access NM_000738), rM1 (rat Muscarinic receptor subtype 1, gene bank access NM_080773), hM3 (human Muscarinic receptor subtype 3, gene bank access NM_000740NM_000740) and hM5 (human Muscarinic receptor subtype 5, gene bank access NM_0121258), receptors expressed in CHO cells (Chinese hamster ovary cells, ATCC) is quantified in a Molecular Devices FLIPR II™ instrument as an increase in fluorescent signal. Inhibition of hM3 and hM5 by compounds is determined by the decrease in fluorescent signal in response to 2 nM acetylcholine activation.
Prior to experiment, the cell culture medium is removed from the plates by inversion. […] Plates are incubated at 37° C. for 60 minutes prior to start the experiment. The incubation is terminated by washing the cells four times in assay buffer, leaving a residual 25 μl buffer per well. Cell plates are then transferred to the FLIPR, ready for compound additions.
The day of experiment, acetylcholine and compounds are diluted in assay buffer in three-fold concentration range (10 points serial dilution) for addition by FLIPR instrument. For all calcium assays, a baseline reading is taken for 10 seconds followed by the addition of 12.5 μl of compounds, resulting in a total well volume of 37.5 μl. Data is collected every second for 60 pictures and then every 6 seconds for 20 pictures prior to the addition of agonist. For hM3 and hM5, before agonist addition, a second baseline reading is taken for 10 seconds followed by the addition of 12.5 μl of agonist or buffer, producing a final volume of 50 μl. After agonist stimulation, the FLIPR continues to collect data every second for 60 pictures and then every 6 seconds for 20 pictures. The fluorescence emission is read using filter 1 (emission 510-570 nm) by the FLIPR on board CCD camera.
Calcium mobilization output data are calculated as the maximal relative fluorescence unit (RFU) minus the minimal value for both compound and agonist reading frame (except for hM1 and rM1 using only the maximal RFU). Data are analyzed using sigmoidal fits of a non-linear curve-fitting program (XLfit version 4.2.2 Excel add-in version 4.2.2 build 18 math 1Q version 2.1.2 build 18). All pEC50 and plC50 values are reported as arithmetic means ±standard error of mean of ‘n’ independent experiments.

[2] = target: T2, cloned human M2 receptor (human Muscarinic receptor subtype 2) (Homo sapiens, UniProt P08172); test: hM2 receptor GTPγS binding; type: biochemical; details: CHO cell membranes expressing hM2; [35S]GTPγS binding; read-out: hM2 EC50
T2 construct: purchased Perkin-Elmer RBHM2M; host or cells: Chinese hamster ovary cells (CHO) membranes
T2 sequence (P08172 1-466): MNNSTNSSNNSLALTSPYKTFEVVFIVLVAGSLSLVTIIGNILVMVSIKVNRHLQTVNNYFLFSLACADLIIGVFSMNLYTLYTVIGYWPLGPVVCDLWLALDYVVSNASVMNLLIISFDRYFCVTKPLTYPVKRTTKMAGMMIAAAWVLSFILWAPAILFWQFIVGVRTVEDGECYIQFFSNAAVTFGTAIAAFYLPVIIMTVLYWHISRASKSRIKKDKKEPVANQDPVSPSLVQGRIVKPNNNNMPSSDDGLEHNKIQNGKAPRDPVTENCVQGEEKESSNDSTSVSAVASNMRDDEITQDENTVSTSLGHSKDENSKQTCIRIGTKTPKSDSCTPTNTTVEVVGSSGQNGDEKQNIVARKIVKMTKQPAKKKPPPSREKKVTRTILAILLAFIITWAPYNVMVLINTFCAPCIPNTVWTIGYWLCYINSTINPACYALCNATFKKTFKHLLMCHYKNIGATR
Experimental: hM2 Receptor GTPγS Binding
Membranes produced from Chinese hamster ovary cells (CHO) expressing the cloned human M2 receptor (human Muscarinic receptor subtype 2, gene bank access NM_000739), are obtained from Perkin-Elmer (RBHM2M). The membranes are thawed at 37° C., passed 3 times through a 23-gauge blunt-end needle, diluted in the GTPγS binding buffer (50 mM Hepes, 20 mM NaOH, 100 mM NaCl, 1 mM EDTA, 5 mM MgCl2, pH 7.4, 100 μM DTT). The EC50, IC50 and Emax of the compounds of the invention are evaluated from 10-point dose-response curves (three fold concentration range) done in 60 μl in 384-well non-specific binding surface plate (Corning). Ten microliters from the dose-response curves plate (5× concentration) are transferred to another 384 well plate containing 25 μl of the following: 5 μg of hM2 membranes, 500 μg of Flashblue beads (Perkin-Elmer) and GDP 25 μM. An additional 15 μl containing 3.3× (60,000 dpm) of GTPγ^35S (0.4 nM final) are added to the wells resulting in a total well volume of 50 μl. Basal and maximal stimulated [^35S]GTPγS binding are determined in absence and presence of 30 μM final of acetylcholine agonist. The membranes/beads mix are pre-incubated for 15 minutes at room temperature with 25 μM GDP prior to distribution in plates (12.5 μM final). The reversal of acetylcholine-induced stimulation (2 μM final) of [^35S]GTPγS binding is used to assay the antagonist properties (IC50) of the compounds. The plates are incubated for 60 minutes at room temperature then centrifuged at 400 rpm for 5 minutes. The radioactivity (cpm) is counted in a Trilux (Perkin-Elmer).
Values of EC50, IC50 and Emax are obtained using sigmoidal fits of a non-linear curve-fitting program (XLfit version 4.2.2 Excel add-in version 4.2.2 build 18 math 1Q version 2.1.2 build 18) of percent stimulated [^35S]GTPγS binding vs. log(molar ligand). All pEC50 and plC50 values are reported as arithmetic means ±standard error of mean of ‘n’ independent experiments.

Compound	EC50 [1] [nM]	EC50 [2] [nM]
COC(=O)N1CCC(C)(N2CCC(n3c(=O)[nH]c4ccc(C)cc43)CC2)C1 (single isomer, unassigned) [Example 45, methyl 3-methyl-3-(4-(6-methyl-2-oxo-2,3-dihydro-1H-benzo[d]imidazol-1-yl)piperidin-1-yl)pyrrolidine-1-carboxylate]	14.1	1640
Cc1ccc2[nH]c(=O)n(C3CCN(C4(C)CCN(C(=O)OC(C)C)C4)CC3)c2c1 (single isomer, unassigned) [Example 40, isopropyl 3-methyl-3-(4-(6-methyl-2-oxo-2,3-dihydro-1H-benzo[d]imidazol-1-yl)piperidin-1-yl)pyrrolidine-1-carboxylate]	36.3	2810
Cc1ccc2c(c1)[nH]c(=O)n2C1CCN(C2(C)CCN(C(=O)OC(C)C)C2)CC1 (single isomer, unassigned) [Example 14, isopropyl 3-methyl-3-(4-(5-methyl-2-oxo-2,3-dihydro-1H-benzo[d]imidazol-1-yl)piperidin-1-yl)pyrrolidine-1-carboxylate]	48.3	1500
C#CCOC(=O)N1CCC(C)(N2CCC(n3c(=O)[nH]c4cc(F)ccc43)CC2)C1 (single isomer, unassigned) [Example 25, prop-2-ynyl 3-(4-(5-fluoro-2-oxo-2,3-dihydro-1H-benzo[d]imidazol-1-yl)piperidin-1-yl)-3-methylpyrrolidine-1-carboxylate]	1.8	146
CCOC(=O)N1CCC(C)(N2CCC(n3c(=O)[nH]c4cc(F)c(C)cc43)CC2)C1 (single isomer, unassigned) [Example 55, ethyl 3-(4-(5-fluoro-6-methyl-2-oxo-2,3-dihydro-1H-benzo[d]imidazol-1-yl)piperidin-1-yl)-3-methylpyrrolidine-1-carboxylate]	4.9	319
CCOC(=O)N1CCC(C)(N2CCC(N3C(=O)Cc4cc(F)ccc43)CC2)C1 (single isomer, unassigned) [Example 80, ethyl 3-(4-(5-fluoro-2-oxoindolin-1-yl)piperidin-1-yl)-3-methylpyrrolidine-1-carboxylate]	69.4	3260
CC1(N2CCC(n3c(=O)[nH]c4ccccc43)CC2)CCN(C(=O)OCCF)C1 (single isomer, unassigned) [Example 31, 2-fluoroethyl 3-methyl-3-(4-(2-oxo-2,3-dihydro-1H-benzo[d]imidazol-1-yl)piperidin-1-yl)pyrrolidine-1-carboxylate]	13.1	997
CCOC(=O)N1CCC(C)(N2CCC(n3c(=O)[nH]c4cc(F)ccc43)CC2)C1 (single isomer, unassigned) [Example 6, ethyl 3-(4-(5-fluoro-2-oxo-2,3-dihydro-1H-benzo[d]imidazol-1-yl)piperidin-1-yl)-3-methylpyrrolidine-1-carboxylate]	< 1.4	588
COC(=O)N1CCC(C)(N2CCC(n3c(=O)[nH]c4ccc(F)cc43)CC2)C1 (single isomer, unassigned) [Example 52, methyl 3-(4-(6-fluoro-2-oxo-2,3-dihydro-1H-benzo[d]imidazol-1-yl)piperidin-1-yl)-3-methylpyrrolidine-1-carboxylate]	14.7	1240
CC1(N2CCC(n3c(=O)[nH]c4cc(F)c(F)cc43)CC2)CCN(C(=O)OCCF)C1 (single isomer, unassigned) [Example 61, 2-fluoroethyl 3-(4-(5,6-difluoro-2-oxo-2,3-dihydro-1H-benzo[d]imidazol-1-yl)piperidin-1-yl)-3-methylpyrrolidine-1-carboxylate]	14.1	1710
COC(=O)N1CCC(C)(N2CCC(n3c(=O)[nH]c4cc(F)ccc43)CC2)C1 (stereo not drawn) [Example 8, methyl 3-(4-(5-fluoro-2-oxo-2,3-dihydro-1H-benzo[d]imidazol-1-yl)piperidin-1-yl)-3-methylpyrrolidine-1-carboxylate]	18.3	1280
CCOC(=O)N1CCC(C)(N2CCC(N3C(=O)Cc4cc(F)c(C)cc43)CC2)C1 (single isomer, unassigned) [Example 81, ethyl 3-(4-(5-fluoro-6-methyl-2-oxoindolin-1-yl)piperidin-1-yl)-3-methylpyrrolidine-1-carboxylate]	8.7	1670
CCNC(=O)N1CCC(C)(N2CCC(n3c(=O)[nH]c4ccccc43)CC2)C1 (stereo not drawn) [Example 5, N-ethyl-3-methyl-3-(4-(2-oxo-2,3-dihydro-1H-benzo[d]imidazol-1-yl)piperidin-1-yl)pyrrolidine-1-carboxamide]	43.3	5130
Cc1ccc2c(c1)[nH]c(=O)n2C1CCN(C2(C)CCN(C(=O)OC(C)C)C2)CC1 (single isomer, unassigned) [Example 15, isopropyl 3-methyl-3-(4-(5-methyl-2-oxo-2,3-dihydro-1H-benzo[d]imidazol-1-yl)piperidin-1-yl)pyrrolidine-1-carboxylate]	94.9	2850
CC#CCOC(=O)N1CCC(C)(N2CCC(n3c(=O)[nH]c4ccccc43)CC2)C1 (single isomer, unassigned) [Example 34, but-2-ynyl 3-methyl-3-(4-(2-oxo-2,3-dihydro-1H-benzo[d]imidazol-1-yl)piperidin-1-yl)pyrrolidine-1-carboxylate]	14.7	897

— patent US20090221642A1, “MUSCARINIC RECEPTOR AGONISTS, COMPOSITIONS, METHODS OF TREATMENT THEREOF, AND PROCESSES FOR PREPARATION THEREOF-176” (AstraZeneca AB, priority 2008, published 2009)
